ChEMBL document CHEMBL1150543, “Semisynthesis and biological evaluation of brevifoliol 13-[N-benzoyl-(-2R,3S)-3-phenylisoserinate]” (1993)

What was measured:
B16 [1] = experiment: Effective dose against B16 melanoma cells in cytotoxicity assay; assay type: functional; conditions: Mus musculus, read-out: ED50 (the source's name)
B16 [2] = experiment: Effective dose against B16 melanoma cells in microtubule assembly assay; assay type: functional; conditions: Mus musculus, read-out: ED50 (the source's name)

**Q.** What does the source list for `CC(=O)O[C@H]1C(=O)[C@@]2(C)[C@H]([C@H](OC(=O)c3ccccc3)[C@]3(O)C[C@H](OC(=O)[C@H](O)[C@@H](NC(=O)c4ccccc4)c4ccccc4)C(C)=C1C3(C)C)[C@]1(OC(C)=O)CO[C@@H]1C[C@@H]2O` [PACLITAXEL]?
**A.** EC50 (B16 [1]): 27 nM; EC50 (B16 [2]): 1000 nM
